According to PubChem BioAssay (NCI):
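The concentration for 50% growth inhibition is given as GI50. TGI denotes the concentration required for complete inhibition of growth.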

Assays:
Experiment in all cases: NCI-60 cell line screen, 384-well format
A498 renal = system: A498 renal
MDA-MB-468 breast = system: MDA-MB-468 breast
UACC-62 melanoma = system: UACC-62 melanoma
HCT-116 colon = system: HCT-116 colon
MCF7 breast = system: MCF7 breast
CAKI-1 renal = system: CAKI-1 renal
CCRF-CEM leukemia = system: CCRF-CEM leukemia
T-47D breast = system: T-47D breast
TK-10 renal = system: TK-10 renal
NCI-H226 lung = system: NCI-H226 lung
SNB-19 CNS = system: SNB-19 CNS
NCI-H23 lung = system: NCI-H23 lung
MDA-MB-435 melanoma = system: MDA-MB-435 melanoma
COLO 205 colon = system: COLO 205 colon
OVCAR-3 ovarian = system: OVCAR-3 ovarian
786-0 renal = system: 786-0 renal
RPMI-8226 leukemia = system: RPMI-8226 leukemia
IGROV1 ovarian = system: IGROV1 ovarian
M14 melanoma = system: M14 melanoma
BT-549 breast = system: BT-549 breast
SK-MEL-5 melanoma = system: SK-MEL-5 melanoma
SF-268 CNS = system: SF-268 CNS
UO-31 renal = system: UO-31 renal
SK-MEL-28 melanoma = system: SK-MEL-28 melanoma
OVCAR-5 ovarian = system: OVCAR-5 ovarian
DU-145 prostate = system: DU-145 prostate
MALME-3M melanoma = system: MALME-3M melanoma
K-562 leukemia = system: K-562 leukemia
NCI-H460 NSCLC = system: NCI-H460 NSCLC
ACHN renal = system: ACHN renal
HCT-15 colon = system: HCT-15 colon
HOP-62 NSCLC = system: HOP-62 NSCLC
KM12 colon = system: KM12 colon
NCI-H322M lung = system: NCI-H322M lung
NCI/ADR-RES ovarian = system: NCI/ADR-RES ovarian
SF-295 CNS = system: SF-295 CNS
SF-539 CNS = system: SF-539 CNS
RXF 393 renal = system: RXF 393 renal
HL-60(TB) leukemia = system: HL-60(TB) leukemia
PC-3 prostate = system: PC-3 prostate
MDA-MB-231 breast = system: MDA-MB-231 breast
NCI-H522 lung = system: NCI-H522 lung
UACC-257 melanoma = system: UACC-257 melanoma
SR leukemia = system: SR leukemia
HT29 colon = system: HT29 colon
LOX IMVI melanoma = system: LOX IMVI melanoma
SK-OV-3 ovarian = system: SK-OV-3 ovarian
MOLT-4 leukemia = system: MOLT-4 leukemia
SN12C renal = system: SN12C renal
U251 glioblastoma = system: U251 glioblastoma
HCC-2998 colon = system: HCC-2998 colon
SK-MEL-2 melanoma = system: SK-MEL-2 melanoma
SW-620 colon = system: SW-620 colon
A549 NSCLC = system: A549 NSCLC

Work on `COc1cc2nccc(Oc3ccc(NC(=O)c4cn(C(C)C)c(=O)n(-c5ccc(F)cc5)c4=O)cc3F)c2cc1OC` yielded a GI50 (A498 renal) of 3.41 µM, a TGI (A498 renal) greater than 100 µM and a GI50 (MDA-MB-468 breast) of 6.91 µM. For the same molecule, the TGI (MDA-MB-468 breast) was greater than 100 µM, the GI50 (UACC-62 melanoma) was 4.5 µM and the TGI (UACC-62 melanoma) was greater than 100 µM. The GI50 (HCT-116 colon) was 5.93 µM, the TGI (HCT-116 colon) was greater than 100 µM and the GI50 (MCF7 breast) was 7.28 µM. The TGI (MCF7 breast) was greater than 100 µM, the GI50 (CAKI-1 renal) was 1.46 µM and the TGI (CAKI-1 renal) was 2.81 µM. It also gave a GI50 (CCRF-CEM leukemia) greater than 100 µM, a TGI (CCRF-CEM leukemia) greater than 100 µM and a GI50 (T-47D breast) of 1.5 µM. It also gave a TGI (T-47D breast) of 6.25 µM, a GI50 (TK-10 renal) of 96.6 µM and a TGI (TK-10 renal) greater than 100 µM. For the same molecule, the GI50 (NCI-H226 lung) was 3.81 µM, the TGI (NCI-H226 lung) was 61.4 µM and the GI50 (SNB-19 CNS) was greater than 100 µM. It also gave a TGI (SNB-19 CNS) greater than 100 µM, a GI50 (NCI-H23 lung) of 0.0469 µM and a TGI (NCI-H23 lung) greater than 100 µM. For the same molecule, the GI50 (MDA-MB-435 melanoma) was greater than 100 µM, the TGI (MDA-MB-435 melanoma) was greater than 100 µM and the GI50 (COLO 205 colon) was greater than 100 µM. For the same molecule, the TGI (COLO 205 colon) was greater than 100 µM, the GI50 (OVCAR-3 ovarian) was greater than 100 µM and the TGI (OVCAR-3 ovarian) was greater than 100 µM. It also gave a GI50 ([…]-0 renal) of 18.9 µM, a TGI (786-0 renal) greater than 100 µM and a GI50 (RPMI-8226 leukemia) of 3.95 µM. For the same molecule, the TGI (RPMI-8226 leukemia) was greater than 100 µM, the GI50 (IGROV1 ovarian) was 5.5 µM and the TGI (IGROV1 ovarian) was greater than 100 µM. It also gave a GI50 (M14 melanoma) of 82.6 µM, a TGI (M14 melanoma) greater than 100 µM and a GI50 (BT-549 breast) of 5.27 µM. The TGI (BT-549 breast) was greater than 100 µM, the GI50 (SK-MEL-5 melanoma) was 4.94 µM and the TGI (SK-MEL-5 melanoma) was greater than 100 µM. It also gave a GI50 (SF-268 CNS) of 3.37 µM, a TGI (SF-268 CNS) greater than 100 µM and a GI50 (UO-31 renal) of 0.246 µM. The TGI (UO-31 renal) was 0.65 µM, the GI50 (SK-MEL-28 melanoma) was 2.97 µM and the TGI (SK-MEL-28 melanoma) was greater than 100 µM. It also gave a GI50 (OVCAR-5 ovarian) greater than 100 µM, a TGI (OVCAR-5 ovarian) greater than 100 µM and a GI50 (DU-145 prostate) greater than 100 µM. It also gave a TGI (DU-145 prostate) greater than 100 µM, a GI50 (MALME-3M melanoma) of 2.85 µM and a TGI (MALME-3M melanoma) greater than 100 µM. The GI50 (K-562 leukemia) was 0.0235 µM, the TGI (K-562 leukemia) was 0.137 µM and the GI50 (NCI-H460 NSCLC) was 4.01 µM. For the same molecule, the TGI (NCI-H460 NSCLC) was greater than 100 µM, the GI50 (ACHN renal) was 1.75 µM and the TGI (ACHN renal) was 5.13 µM. For the same molecule, the GI50 (HCT-15 colon) was greater than 100 µM, the TGI (HCT-15 colon) was greater than 100 µM and the GI50 (HOP-62 NSCLC) was 15 µM. It also gave a TGI (HOP-62 NSCLC) greater than 100 µM, a GI50 (KM12 colon) of 0.0315 µM and a TGI (KM12 colon) greater than 100 µM. It also gave a GI50 (NCI-H322M lung) greater than 100 µM, a TGI (NCI-H322M lung) greater than 100 µM and a GI50 (NCI/ADR-RES ovarian) greater than 100 µM. For the same molecule, the TGI (NCI/ADR-RES ovarian) was greater than 100 µM, the GI50 (SF-295 CNS) was 0.271 µM and the TGI (SF-295 CNS) was greater than 100 µM. For the same molecule, the GI50 (SF-539 CNS) was 1.3 µM, the TGI (SF-539 CNS) was 2.85 µM and the GI50 (RXF 393 renal) was 0.63 µM. For the same molecule, the TGI (RXF 393 renal) was 4.89 µM, the GI50 (HL-60(TB) leukemia) was 2.6 µM and the TGI (HL-60(TB) leukemia) was greater than 100 µM. The GI50 (PC-3 prostate) was 18.4 µM, the TGI (PC-3 prostate) was greater than 100 µM and the GI50 (MDA-MB-231 breast) was 3.06 µM. For the same molecule, the TGI (MDA-MB-231 breast) was greater than 100 µM, the GI50 (NCI-H522 lung) was 1.65 µM and the TGI (NCI-H522 lung) was 5.66 µM. The GI50 (UACC-257 melanoma) was 2.33 µM, the TGI (UACC-257 melanoma) was 8.74 µM and the GI50 (SR leukemia) was 2.69 µM. The TGI (SR leukemia) was 20.6 µM, the GI50 (HT29 colon) was 7.99 µM and the TGI (HT29 colon) was greater than 100 µM. The GI50 (LOX IMVI melanoma) was greater than 100 µM, the TGI (LOX IMVI melanoma) was greater than 100 µM and the GI50 (SK-OV-3 ovarian) was 5.58 µM. It also gave a TGI (SK-OV-3 ovarian) greater than 100 µM, a GI50 (MOLT-4 leukemia) of 0.407 µM and a TGI (MOLT-4 leukemia) of 4.2 µM. For the same molecule, the GI50 (SN12C renal) was 0.642 µM, the TGI (SN12C renal) was greater than 100 µM and the GI50 (U251 glioblastoma) was greater than 100 µM. For the same molecule, the TGI (U251 glioblastoma) was greater than 100 µM, the GI50 (HCC-2998 colon) was greater than 100 µM and the TGI (HCC-2998 colon) was greater than 100 µM. It also gave a GI50 (SK-MEL-2 melanoma) of 2.29 µM, a TGI (SK-MEL-2 melanoma) of 9.87 µM and a GI50 (SW-620 colon) of 9.13 µM. For the same molecule, the TGI (SW-620 colon) was greater than 100 µM, the GI50 (A549 NSCLC) was 4.67 µM and the TGI (A549 NSCLC) was greater than 100 µM.
